Test results as given in paper PMC10812521, “Boesenbergia rotunda and Its Pinostrobin for Atopic Dermatitis: Dual 5-Lipoxygenase and Cyclooxygenase-2 Inhibitor and Its Mechanistic Study through Steady-State Kinetics and Molecular Modeling” (Antioxidants, 2024).
Converted amounts (≈) assume the structure as drawn. “Also recorded” adds a separate entry of the source. Where a name gives a salt, the structure may show the parent alone. Read-outs that look alike come from different tables or passages of the source.

Experiments:
COX-2 and COX-1 = test system: COX-2 and COX-1; parameters: method as in PMID 26626242; conditions: cited from earlier work
[1] = Nitric oxide (NO) radical scavenging activity (Griess reaction); conditions: pure compounds
Description: The technique was adapted and modified from the study of Thadhani et al.. The Griess reaction was used to determine the NO radical scavenging activity. The NO radicals were generated from 10 mM sodium nitroprusside (SNP) in phosphate-buffered saline (PBS), pH 7.3. A range of sample concentrations (10 µL, 0.625–5 mg/mL) were reacted with 10 mM SNP in PBS at pH 7.3 (90 µL) at room temperature for 90 min in a 96-well plate under visible polychromatic light. Afterward, 1% sulfanilamide in 5% H3PO4 (50 µL) was added to the preincubated extract, followed by subsequent incubation in a dark condition with ambient temperature for 5 min. Following that, 50 µL of 0.1% w/v N-(1-naphtyl)-ethylenediamine (NED) in distilled water was added to each well before incubating at room temperature for 30 min in a dark condition. The diazotization of sulfanilamide with a nitrite ion occurred, followed by a coupling reaction with NED solution to generate a magenta-colored chromophore. The absorbance was measured using a microplate reader at 540 nm. Quercetin was used as a positive control. […] A solvent was used as a control. The percentage inhibition was calculated using Equation (5). (5) % Inhibition=Absorbance control−Absorbance sample/Absorbance control×100

[2] = DPPH radical scavenging activity; conditions: pure compounds
Description: Each extract/EOs sample (20 µL) at various concentrations ([…]–5 mg/mL) was placed to a 96-well plate, followed by the addition of 120 µM DPPH solution in methanol (180 µL). The plate was subsequently incubated for 30 min in the dark at 37 °C. After that, the absorbance was measured by a microplate reader at 517 nm. Quercetin and solvent were used as a positive control and a control, respectively. The radical scavenging percentage inhibition against DPPH was calculated using Equation (4). (4) % Inhibition=Absorbance control−Absorbance sample/Absorbance control×100

soybean 15-lipoxygenase = test system: soybean 15-lipoxygenase; parameters: method as in PMID 26048035; conditions: tested range of concentrations; cited from earlier work
[3] = test system: RAW264.7 murine macrophage cells; parameters: method as in PMID 26048035; conditions: 25 µg/mL; cited from earlier work
[4] = test system: LPS-induced RAW264.7 murine macrophage cells; parameters: method as in PMID 26048035; conditions: 25 µg/mL; cited from earlier work
Human recombinant COX-2 = biological target: T1, Human recombinant COX-2 (Homo sapiens, UniProt P35354); experiment: Cyclooxygenase-2 inhibitory assay; format: biochemical
T1 construct: purchased Sigma Aldrich C0858; host or cells: insect cells
T1 sequence (P35354 18-604): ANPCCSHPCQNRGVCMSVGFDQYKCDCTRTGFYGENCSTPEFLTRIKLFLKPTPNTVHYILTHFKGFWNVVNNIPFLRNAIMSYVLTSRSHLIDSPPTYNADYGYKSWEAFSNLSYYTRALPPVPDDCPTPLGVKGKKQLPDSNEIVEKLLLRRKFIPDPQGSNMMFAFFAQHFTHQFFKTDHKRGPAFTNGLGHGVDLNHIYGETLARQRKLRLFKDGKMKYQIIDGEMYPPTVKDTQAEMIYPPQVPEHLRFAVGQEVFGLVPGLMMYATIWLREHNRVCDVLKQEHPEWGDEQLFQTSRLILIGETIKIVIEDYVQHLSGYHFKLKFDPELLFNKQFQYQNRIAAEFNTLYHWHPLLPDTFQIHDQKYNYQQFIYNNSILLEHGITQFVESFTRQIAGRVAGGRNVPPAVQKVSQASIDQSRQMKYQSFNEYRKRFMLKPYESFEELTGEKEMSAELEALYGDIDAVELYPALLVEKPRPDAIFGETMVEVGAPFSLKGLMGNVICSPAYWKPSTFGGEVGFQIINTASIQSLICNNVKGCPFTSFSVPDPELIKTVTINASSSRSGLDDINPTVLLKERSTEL
Description: This method was adapted and modified from Chew et al. (2018). Human recombinant COX-2 expressed in insect cells (Sigma Aldrich, C0858) was used in this experiment. Initially, a solution of 100 mM Tris HCl buffer, pH 8, was plated out in each well of a 96-well plate. Various concentrations of 40 µL samples (dissolved in polysorbate-20 and DMSO) were further added to the plate, followed by the addition of 40 µL of 40 U COX-2 enzyme (in ice-cool 100 mM Tris HCl buffer, pH 8). The mixture was incubated at 25 °C for 15 min under dark condition. Following the incubation, 10 µL of 20 mM N,N,N′,N′-tetramethyl-p-phenylenediamine (TMPD) and 4 µL of 10 µM of arachidonic acid were added to the mixture. Incubation of the mixture was further performed at a subdued light condition for 15 min. Prostaglandin G2 (PGG2) as an intermediate peroxide product was formed by the reaction and further oxidized the TMPD to a purple-colored TMPD complex. The absorbance was measured at 611 nm. The experiments were performed in duplicate wells. […] The percentage of inhibition was calculated by Equation (7), and the IC50 values were determined. (7) % Inhibition=Absorbance control−Absorbance sample/Absorbance control×100

[5] = test system: keratinocyte (HaCaT) cells; parameters: method as in earlier work; conditions: cited from earlier work
[6] = biological target: T2, Human recombinant 5-lipoxygenase (Homo sapiens, UniProt P09917); experiment: Steady-state inhibition kinetic study of 5-lipoxygenase; format: biochemical; conditions: for type of inhibition against 5-LOX: Michaelis-Menten and Lineweaver-Burk plots
T2 construct: purchased Cayman Chemical
T2 sequence (P09917 1-674): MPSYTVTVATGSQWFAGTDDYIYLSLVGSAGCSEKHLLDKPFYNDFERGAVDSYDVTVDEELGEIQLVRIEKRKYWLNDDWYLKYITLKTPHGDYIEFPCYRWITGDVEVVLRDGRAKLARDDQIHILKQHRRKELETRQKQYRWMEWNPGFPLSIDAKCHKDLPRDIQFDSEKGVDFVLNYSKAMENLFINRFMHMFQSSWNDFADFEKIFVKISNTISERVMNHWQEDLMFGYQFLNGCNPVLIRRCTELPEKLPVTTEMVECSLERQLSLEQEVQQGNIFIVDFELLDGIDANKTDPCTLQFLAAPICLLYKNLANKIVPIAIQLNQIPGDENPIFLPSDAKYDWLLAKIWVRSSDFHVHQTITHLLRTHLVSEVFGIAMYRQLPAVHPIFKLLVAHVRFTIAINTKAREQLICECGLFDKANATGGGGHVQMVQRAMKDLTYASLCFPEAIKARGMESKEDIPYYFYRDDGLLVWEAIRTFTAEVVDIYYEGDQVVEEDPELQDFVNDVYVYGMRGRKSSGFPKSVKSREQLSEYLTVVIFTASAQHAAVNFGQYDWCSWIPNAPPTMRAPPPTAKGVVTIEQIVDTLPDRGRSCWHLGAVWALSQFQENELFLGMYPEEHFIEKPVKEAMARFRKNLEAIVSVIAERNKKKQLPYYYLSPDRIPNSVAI
Description: The same experimental conditions as described previously for determining enzyme inhibition were applied. The reaction was performed at 25 °C and measured kinetically for 30 min (BioTek Synergy H1 microplate reader, Winooski, VT, USA). […] Furthermore, the enzymes’ velocity was plotted versus the substrate concentration, which was fitted to the Henri–Michaelis–Menten equation. In addition, the data were transformed to fit a double reciprocal plot using the Lineweaver–Burk method. […] All measurements were performed in two rounds of triplicate wells.

Human recombinant 5-LOX = biological target: T3, Human recombinant 5-LOX (Homo sapiens, UniProt P09917); experiment: 5-Lipoxygenase inhibitory assay; format: biochemical
T3 construct: purchased Cayman Chemical
T3 sequence (P09917 1-674): T2 sequence (P09917 1-674)
Description: We performed this method according to a previous study with some modifications. Human recombinant 5-LOX (Cayman Chemical, E.C. 1.13.11.34, Ann Arbor, MI, USA) was used in this study. Various concentrations of 20 µL of the tested samples (dissolved in polysorbate-20 and DMSO) were plated in a 96-well UV transparent plate followed by the addition of 100 µL of 0.1 M potassium phosphate buffer, pH 6.3. The mixture was maintained at 25 °C before the addition of enzyme. We added 20 µL of 100 U 5-LOX enzyme (in 0.1 M potassium phosphate buffer, pH 6.3) to the sample solution followed by a 4 min incubation at 25 °C. Afterward, the reaction was initiated by adding 10 µL of 1 mM arachidonic acid as a substrate. The incubation was performed at 25 °C for 30 min, and the absorbance was measured at 234 nm using a microplate reader. The nonenzymatic control was used as a background. […] The experiments were performed in two rounds to generate five replicate wells in total. The percentage of inhibition was calculated by Equation (8), and the IC50 values were determined. (8) % Inhibition=Absorbance control−Absorbance sample/Absorbance control×100

[7] = Ferric reducing antioxidant power (FRAP); conditions: pure compound
Description: Each extract/EOs sample (10 µL) was added to each well of a 96-well plate at various concentrations (1–5 mg/mL), followed by a freshly prepared FRAP reagent (190 µL). The mixture was then incubated at room temperature for 4 min. Vivid blue resulted from the […]. The absorbance was further measured at 595 nm. The FRAP value (Equation (6)) was determined by calculating the concentration of ferric ions in the samples relative to the calibration curve of FeSO4 (FRAP value in µM FeSO4/mg dry weight of extract). (6) FRAP value=C ×v (mL)/d × c (mg/mL) where C is the calibrated sample concentration, v is the volume sample, d is the dilution factor, and c is the concentration of the tested sample.

Staphylococcus aureus = experiment: Broth dilution assay (MIC); format: cell-based; conditions: pure compounds, inactive at >200 µg/mL
Description: The MIC values were determined using a broth dilution assay. Tetracycline used as an antibiotic was dissolved in 50% ethanol while EOs, extracts, and pinostrobin dissolved in DMSO (0.2% v/v) were suspended in an LB medium to obtain the final concentrations of EOs/extract, pinostrobin, and tetracycline in the range of 0.1562–200 µg/mL. Then, 20 µL of the bacterial culture with an OD600 value of ~0.5 was taken into each tube, which was continuously inoculated. Afterward, the treated culture was incubated at 37 °C for 24 h in a shaking condition (180 rpm). The absorbance was further measured at 600 nm. An LB medium and 0.2% DMSO were used as positive controls, while the cell culture without treatment in an LB medium was used as a negative control. The experiments were performed in triplicate.

[8] = topical application, mouse model, 1000 mg/kg; cited from earlier work
5-LOX = test system: 5-LOX; parameters: method as in PMID 17376394; conditions: cited from earlier work
COX-2 = conditions: cited from earlier work
[9] = read-out: COX-2 IC50 (µg/mL) (converted)
[10] = Staphylococcus aureus, read-out: MIC

COc1cc(O)c2c(c1)OC(c1ccccc1)CC2=O (racemic) [racemic pinostrobin, pinostrobin]
COX activity compared with the positive control (COX-2 and COX-1): comparable to etodolac | selectivity COX-2 versus COX-1 (COX-2 and COX-1): more selective for COX-2 than COX-1

O=c1c(O)c(-c2ccc(O)c(O)c2)oc2cc(O)cc(O)c12 [Quercetin, Quercetin hydrate]
IC50 [1]: 310 µM | NO Radical; IC50 [1]: 93.58 ± 7.93 µg/mL | DPPH Radical; IC50 [2]: 19.08 ± 1.34 µg/mL | IC50 [2]: 63.1 µM

(–)-pinostrobin
activity towards soybean 15-lipoxygenase (soybean 15-lipoxygenase): inactive | cytotoxic effect [3]: without a cytotoxic effect | inhibition of NO production [4]: 90.84%

COc1cc(O)c2c(c1)O[C@H](c1ccccc1)CC2=O [Pinostrobin, pinostrobin]
NO Radical; IC50 [1]: >1000 µg/mL | IC50 (Human recombinant COX-2; read-out: COX-2 IC50): 286 µM | IC50 (Human recombinant COX-2; [9]): 286 µM | DPPH Radical; IC50 [2]: >1000 µg/mL | IC50 keratinocyte (HaCaT) cells [5]: 30.76 µg/mL (≈ 114 µM) | full maximal inhibitory concentration (IC100) keratinocyte (HaCaT) cells [5]: > 250 µg/mL | Ki [6]: 2.28 µM | type of inhibition against 5-LOX [6]: mixed-type inhibition; also recorded: mixed-type inhibitor | IC50 (Human recombinant 5-LOX; read-out: 5-LOX IC50): 0.499 µM | IC50 (Human recombinant 5-LOX; read-out: 5-LOX IC50 (µg/mL) (converted)): 0.499 µM | fold superior 5-LOX inhibitory activity than BD (Human recombinant 5-LOX; relative to BD): 4 fold | fold superior 5-LOX inhibitory activity to NDGA (Human recombinant 5-LOX; relative to NDGA): 10 fold | FRAP (mM FeSO4/g Extract) [7]: 1.04 ± 0.01 mM FeSO4/g Extract | MIC (Staphylococcus aureus; [10]): > 200 µg/mL | MIC (Staphylococcus aureus): >200 µg/mL | dermal toxicity [8]: no dermal toxicity was observed

CN(C)[C@@H]1C(O)=C(C(N)=O)C(=O)[C@@]2(O)C(O)=C3C(=O)c4c(O)cccc4[C@@](C)(O)[C@H]3C[C@@H]12 [Tetracycline, tetracycline hydrochloride]
MIC (Staphylococcus aureus; [10]): 3.12 µg/mL

CCC(=O)OCC(=O)[C@@]1(OC(=O)CC)[C@@H](C)C[C@H]2[C@@H]3CCC4=CC(=O)C=C[C@]4(C)[C@@]3(F)[C@@H](O)C[C@@]21C [BD, betamethasone dipropionate]
IC50 (Human recombinant COX-2; read-out: COX-2 IC50): 240 µM | IC50 (Human recombinant COX-2; [9]): 240 µM | IC50 (Human recombinant 5-LOX; 5-LOX IC50 (µM)): 2.08 µM | IC50 (Human recombinant 5-LOX; 5-LOX IC50 (µg/mL)): 2.08 µM

CC(Cc1ccc(O)c(O)c1)C(C)Cc1ccc(O)c(O)c1 (stereo not drawn) [NDGA, nordihydroguaiaretic acid]
type of inhibition against 5-LOX [6]: mixed-type inhibition; also recorded: mixed-type inhibitor

COc1ccc2c(c1)c(CC(=O)O)c(C)n2C(=O)c1ccc(Cl)cc1 [indomethacin]
COX-2 IC50 (COX-2): 0.26 ± 0.03 µg/mL
